Measurements taken from patent publication US20090062150A1, “COMPOSITIONS AND METHODS FOR REGULATING INTRAMEMBRANE PROTEASES” (priority 2006, published 2009).

Tests used:
[1] = molecular target: T1, truncated GlpG transmembrane core domain (Escherichia coli, UniProt P09391); settings: qualitative statement, no data shown; cited from earlier work
T1 construct: The transmembrane core domain of GlpG (residues 87-276) was purified as described previously; made in house

rhomboid protease = settings: qualitative statement; cited from earlier work
[2] = molecular target: T1, truncated GlpG transmembrane core domain; assay: In vitro protease activity assay of GlpG core domain; type: biochemical, E. coli; settings: for inhibition of GlpG by other detergents: wide range of concentrations up to several times their CMCs, data not shown
Method: Structural characterization of E. coli rhomboid protease, GlpG, was carried out using an N-terminally truncated GlpG transmembrane core domain (residues 87-276). In vitro characterization of the enzymatic activity of the truncated GlpG was reconstituted to validate the use of the GlpG core domain for crystallographic studies was carried out using two separate assays. Proteolytic activity of purified truncated GlpG core domain on an artificial protein substrate in detergent micelles was analyzed at 37° C. […] Proteolytic activity of purified truncated GlpG core domain was also compared with full length GlpG using C100-Spitz-Flag as substrate.
Combinatorial library technology provides an efficient way of testing a potentially vast number of different substances for their ability to modulate the activity of a rhomboid protease. In some embodiments, test substances may be screened for their ability to interact with the rhomboid protease in an enzymatic assay. For example, in one such enzymatic assay an artificial protein substrate, such as, for example, a membrane: associated protein, such as, CED-4, or C100-Spitz-Flag may be contacted with a rhomboid protease, such as GlpG. Cleavage products may then be analyzed by, for example, sodium dodecyl-sulfate polyacrylamide gel electrophoresis (SDS-PAGE). A test substance may be added to such an enzymatic, assay as a separate component, and modulation of the enzymatic activity of the rhomboid protease may be apparent by a reduction or enhancement of the amount or type of cleavage product. The modulation of activity may be indicative of binding of the test substance to the rhomboid protease.
The proteolytic activity of GlpG was examined as described by Wu et al.

T1 sequence (P09391 87-276): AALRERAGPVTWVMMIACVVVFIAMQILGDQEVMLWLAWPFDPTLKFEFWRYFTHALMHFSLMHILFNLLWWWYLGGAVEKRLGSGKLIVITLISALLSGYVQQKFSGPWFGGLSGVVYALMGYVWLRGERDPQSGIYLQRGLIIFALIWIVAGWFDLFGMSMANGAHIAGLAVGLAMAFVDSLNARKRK

Compound	inhibition of rhomboid activity (rhomboid protease)	specificity for rhomboid (rhomboid protease)	inhibition of GlpG by other detergents [2]	also measured
O=c1oc(Cl)c(Cl)c2ccccc12 [DCI, Dichloroisocoumarin]	inhibit rhomboid activity	lack specificity		inhibition of GlpG [1]: relatively potent inhibition
CCCCCCCCCCCC[N+](C)(C)[O-] [LDAO]			no inhibition	
CCCCCCCCOCCOCCOCCOCCO [C8E4, tetraethyleneglycol monooctyl ether]				inhibition of enzymatic activity on artificial substrate ([2]; at concentrations above its critical micelle concentration (CMC), artificial substrate, FIG. 4A left panel): inhibit enzymatic activity; inhibition of proteolysis of C100-Spitz-Flag ([2]; substrate C100-Spitz-Flag, FIG. 4A right panel): inhibition is also observed
CCCCCCCCCO[C@@H]1O[C@H](CO)[C@@H](O)[C@H](O)[C@H]1O [nonyl glucoside]			no inhibition	
Cc1ccc(S(=O)(=O)N[C@@H](Cc2ccccc2)C(=O)CCl)cc1 [TPCK]	inhibit rhomboid activity	lack specificity		
